{"source": "patent US20120225889A1", "about": "“USE OF MACROCYCLIC LACTONE DERIVATIVES FOR THE TREATMENT OF INFLAMMATORY DISORDERS” (PIRAMAL LIFE SCIENCES LIMITED, priority 2010, published 2012)", "key": {"IFN-γ": {"tested_on": "IFN-γ", "assay": "Cytokine release assay in hPBMCs: IFN-γ", "format": "cell-based", "conditions": "Homo sapiens", "procedure": "hPBMCs were obtained from healthy donors by centrifugation of heparinized venous blood over Ficoll/Hypaque solution (Histopaque-1077, Sigma, USA). Isolated hPBMCs were suspended in RPMI 1640 culture medium supplemented with 10% FBS and seeded at a density of 50,000 cells/well in a 96-well plate (Nunc, USA). The cells were incubated at 37° C., 5% CO2 for a period of 24 h. These cells were used for the lymphocyte proliferation as well as cytokine release assay.\nThe plated cells were treated with different concentrations of the test compound (prepared as mM stock in DMSO and diluted with DMSO to achieve the following final concentrations in the assay: 100, 10, 1, 0.1, 0.01, 0.001, 0.0001, 0.00001 and 0.000001 μM) and incubated for 30 min. The cells were then stimulated with PHA (prepared as 1 mg/mL stock in RPMI 1640 culture medium and used at a final concentration of 5 μg/mL). FK506 was used as a standard. The plates were incubated at 37° C., 5% CO2 for 48 h. The cytokines in the supernatant collected were detected using ELISA kit (BD biosciences, USA). The cytokines evaluated in the assay were TNF-α, IL-2, IL-6, and IFN-γ."}, "[1]": {"tested_on": "DBA/1J mice with collagen induced arthritis", "assay": "Arthritic mice: administration by osmotic pumps", "format": "in vivo", "conditions": "sub-cutaneous osmotic pumps, 240 μg/mouse/24 h, 26 days", "procedure": "The experiment was performed in DBA/1J mice, in which arthritis was developed by injection of collagen emulsion, as described in Example 26.\nThe animals were divided into two groups, viz. a control group and a test compound treated group, having 6 animals each. The clear solution of test compound was prepared in 100% dimethyl sulfoxide (DMSO) and then DMSO concentration was brought down to 25% by addition of appropriate quantities of ethanol and polyethylene glycol 400 (PEG 400), so that the proportion of each solvent in a final solution v/v was 25:15:60::DMSO:EtOH:PEG-400. By this method absolutely clear solution of the compound having a final concentration of 40 mg/mL was obtained. This solution was filtered through 0.2μ filter and was filled in osmotic pumps (Alzet micro-osmotic pump model 1002). The delivery rate of this model of pump is 0.25 μL per hour and it remains functional for 14 days.\nThese pumps were then implanted sub-cutaneously in the animals of the test compound treated group (240 μg/mouse/24 h). The pumps filled with blank solvent were implanted sub-cutaneously in the animals of control group. Thereafter, their paws were scored for arthritic indices, in addition to measurement of thickness, daily once. After 14 days, the pumps were replaced with freshly filled pumps and the experiment was continued for next 12 days (total 26 days)."}, "TNF-α": {"tested_on": "TNF-α", "assay": "hPBMC membrane-monocyte contact bioassay: TNF-α", "format": "cell-based, human", "conditions": "activated hPBMC membranes, 24 h", "from_the_text": "The assay was designed as in reference, Immunology Letters, 117, 114-118, (2008), the disclosure of which is incorporated by reference for the teaching of the assay. Activated T cell contact-mediated monocyte activation, leading to the production of proinflammatory cytokines (e.g., TNF-α, IL-6), contributes to the pathogenesis of chronic inflammatory diseases including rheumatoid arthritis.\n6-well plates (Nunc, USA) were coated with Goat anti-Mouse IgG, Fc (Chemicon, USA) at a concentration of 16.5 μL/mL in coating buffer ([…] NaHCO3, 3.56 g Na2CO3, pH 9.5).\nThe plates were incubated overnight at 4° C. under sterile conditions. […]\nFollowing incubation, hPBMCs in separate wells of the 6-well plate were harvested, pooled together, and centrifuged. […] The pellet of hPBMC membranes was resuspended in lysis buffer (Sigma, USA) and the protein concentration was determined by the method of Bradford (Sigma, USA).\n100 μL monocytes per well at 5×10^5 cells/mL were added to the 96-well plate (Nunc, USA) and cultured for 48 h at 37° C. […] Supernatants were collected after 24 h and TNF-α and IL-6 production was measured using OptiEIA ELISA sets, (BD BioSciences, USA). […]"}}, "note": "Where two headings read alike, the source gives them in different places.", "data": [{"smiles": "C/C=C/C(O)C(C)/C=C/C(=N\\O)C(C)C(O)C(C)C1OC(=O)/C(OC)=C/C(C)=C/C(C)C(O)C(CC)C(O)C(C)C/C(C)=C/C=C/C1OC", "note": "(stereo not shown) [Compound of example 7, (3Z,5E,13E,15E)-18-((5Z,6E,10E)-3,9-Dihydroxy-5-(hydroxymino)-4,8-dimethyldodeca-6,10-dien-2-yl)-9-ethyl-8,10-dihydroxy-3,17-dimethoxy-5,7,11,13-tetramethyl oxacyclooctadeca-3,5,13,15-tetraen-2-one]", "values": [{"measurement": "IC50", "setting": "IFN-γ; Table 3: PHA-PMA induced hPBMC's, 48 h, read-out: IFN-γ IC50", "value": 0.02, "unit": "µM"}, {"measurement": "IC50", "setting": "IFN-γ; Table 4: mitogen stimulated production from hPBMC's, read-out: IFN-γ (IC50 μM)", "value": 0.1, "unit": "µM"}, {"measurement": "severity of arthritis (arthritic scores and paw thickness)", "setting": "[1]", "value": "reduces severity of arthritis"}, {"measurement": "inhibition of TNF-α production from monocytes", "setting": "TNF-α", "value": "did not inhibit"}]}]}
